The test system of this test is E. coli 70S ribosomes. Nature of the test: Erythromycin competition in the puromycin assay on 70S ribosomes. Format: biochemical. The following applies: 20 μM erythromycin and/or 2 μM PR20, 30 nM 70S, quenched at 300 s. As to the method:
The assay was performed as described above for the puromycin kinetics, except that the 70S ribosomes were pre-incubated with 22 μM erythromycin for 5 min prior to adding PR20. The stock solution of erythromycin contained 2 mM erythromycin in ethanol, so the control reaction (70S with no erythromycin) and the reactions with erythromycin were prepared to contain the same amount of ethanol (1%). The final concentrations after addition of puromycin were: 30 nM 70S, 66 nM [^35S]-fMet-tRNA^fMet, 1 μM mRNA, 2 μM PR20 (no PR20 in the control reaction), 20 μM erythromycin (or no erythromycin in a control reaction), 50 µM puromycin (in 20 mM Tris-acetate (pH 7.0), 100 mM NH4OAc, 12 mM Mg(OAc)2 and 1% ethanol). Samples were quenched at 300 s when the uninhibited reaction had reached a plateau.

Ends that are not written are not given here.

On to “PRPRPRPRPRPRPRPRPRPRPRPRPRPRPRPRPRPRPRPR [PR20]”, for which the fMet-puromycin formed by setting is: (first column (replicate 1)) 254; (second column (replicate 2)) 277.

(Values after paper PMC9120013, “Ribosome inhibition by C9ORF72-ALS/FTD-associated poly-PR and poly-GR proteins revealed by cryo-EM” (Nature Communications, 2022).)
